Here are results for 6 compounds from US20220354840A1, “NICOTINE POUCH” (Enorama Pharma AB, priority 2019, published 2022).

Read-outs that look alike come from different tables or passages of the source.

For series [1] the following is noted: cited from earlier work.
A short description of series [2]: Stability study: degradation products by HPLC-UV. Type of series: physicochemical. The settings on record: pre-stressed sample, elevated temperature and light. The method, then: • nicotine release at 30 min • degradation product Pouch samples from Example 1 were stored in a plastic container with closed (but not hermetically sealed) lid at 21-22° C./60-62% RH for up to 3 months. The release of nicotine at 30 min for the pouch product stored for 1 month at 21-22° C./60-62% RH was analyzed, using the UV spectrophotometrical method described above.
Pouch samples from Example 1 were also analyzed for the detection of potential degradation products, using HPLC-UV method (Agilent 1200 series HPLC). Samples with the same excipients but without the nicotine API and samples with the nicotine API was used to identify reference (blank) peaks. A pre-stressed sample of nicotine was prepared (using elevated temperature and light) to reveal any peaks originating from heat- and light-induced degradation of nicotine. […] The obtained peaks in the chromatogram corresponds to nicotine or solvent injection peak. The chromatogram from the HPLC-UV analysis of pre-stressed sample of nicotine (FIG. 5A), which was compared to the chromatogram of nicotine bitartrate dihydrate spiked into the reference sample without API (FIG. 5B).

As for `CC1=CC(=O)NS(=O)(=O)O1` [Acesulfame K, Acesulfame potassium], the Solubility in water in series [1] (at 20° C.) is 270 mg/ml at 20 °C. Moreover, the “Solubility in water (descriptive)” value in series [1] is listed as “High solubility:”.

On to `OC[C@@H](O)[C@@H](O)[C@H](O)[C@H](O)CO` [D-Mannitol], for which, in series [1] (at 25° C.), the Solubility in water was 216 mg/ml at 25 °C. Further, in series [1], the “Solubility in water (descriptive)” value is recorded as “Very soluble”.

`CC(C)[C@@H]1CC[C@@H](C)C[C@H]1O` [L-Menthol]: the “Solubility in water (descriptive)” value in series [1] is on record as “Low soluble”.

In the case of `CC(O)CO` (centres unmarked) [Propylene glycol], the “Solubility in water (descriptive)” value in series [1] is “Soluble”.

`OC[C@@H](O)[C@H](O)[C@@H](O)CO` [Xylitol]: the “Solubility in water (descriptive)” value in series [1] is “Very soluble”.

For `CN1CCCC1c1cccnc1` (centres unmarked) [nicotine], the “peaks from potential degradation products (HPLC-UV)” value in series [2] is reported as “No additional peaks from potential degradation products”.
